System: 439559-082-T-J2-PDC spheroids viability
Assay: Anticancer human tumor 439559-082-T-J2-PDC patient-derived colon adenocarcinoma cell line growth inhibition [GQUAD]
Details: for IC50: curve of first compound; for viability, T/C: stronger effect = lower value
How it was run: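 Tumor cells were grown as complex spheroids with HUVEC endothelial cells and mesenchymal stem cells as stroma. G-quadruplex stabilizers were combined with targeted agents over half-log dilutions from near the clinical Cmax, or from 10 microM.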

[1] = second compound 0.0316 µM, first compound 0.0316 µM
[2] = second compound 0.0316 µM, first compound 0.1 µM
[3] = second compound 0.0316 µM, first compound 0.316 µM
[4] = second compound 0.0316 µM, first compound 1 µM
[5] = second compound 0.0316 µM, first compound 3.16 µM
[6] = second compound 0.0316 µM, first compound 10 µM
[7] = second compound 0.1 µM, first compound 0.0316 µM
[8] = second compound 0.1 µM, first compound 0.1 µM
[9] = second compound 0.1 µM, first compound 0.316 µM
[10] = second compound 0.1 µM, first compound 1 µM
[11] = second compound 0.1 µM, first compound 3.16 µM
[12] = second compound 0.1 µM, first compound 10 µM
[13] = second compound 0.316 µM, first compound 0.0316 µM
[14] = second compound 0.316 µM, first compound 0.1 µM
[15] = second compound 0.316 µM, first compound 0.316 µM
[16] = second compound 0.316 µM, first compound 1 µM
[17] = second compound 0.316 µM, first compound 3.16 µM
[18] = second compound 0.316 µM, first compound 10 µM
[19] = second compound 1 µM, first compound 0.0316 µM
[20] = second compound 1 µM, first compound 0.1 µM
[21] = second compound 1 µM, first compound 0.316 µM
[22] = second compound 1 µM, first compound 1 µM
[23] = second compound 1 µM, first compound 3.16 µM
[24] = second compound 1 µM, first compound 10 µM
[25] = second compound 3.16 µM, first compound 0.0316 µM
[26] = second compound 3.16 µM, first compound 0.1 µM
[27] = second compound 3.16 µM, first compound 0.316 µM
[28] = second compound 3.16 µM, first compound 1 µM
[29] = second compound 3.16 µM, first compound 3.16 µM
[30] = second compound 3.16 µM, first compound 10 µM
[31] = second compound 10 µM, first compound 0.0316 µM
[32] = second compound 10 µM, first compound 0.1 µM
[33] = second compound 10 µM, first compound 0.316 µM
[34] = second compound 10 µM, first compound 1 µM
[35] = second compound 10 µM, first compound 3.16 µM
[36] = second compound 10 µM, first compound 10 µM
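Note: spheroids exposed to the agents for 7 days before readout.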
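Throughout, for viability, T/C: percent of luminescence signal in DMSO vehicle wells taken as 100% viability.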

What does the source list for COc1cc(C2c3cc4c(cc3C(OC3OC5COC(C)OC5C(O)C3O)C3COC(=O)C23)OCO4)cc(OC)c1O (stereo unspecified) + CN(C)c1ccc(Nc2c3ccc(NC(=O)CCN4CCCC4)cc3nc3cc(NC(=O)CCN4CCCC4)ccc23)cc1?
IC50 (second compound 0.0316 µM): > 10 µM; IC50 (second compound 0.1 µM): > 10 µM; IC50 (second compound 0.316 µM): > 10 µM; IC50 (second compound 1 µM): > 10 µM; IC50 (second compound 3.16 µM): > 10 µM; IC50 (second compound 10 µM): > 10 µM; viability, T/C [1]: 102%; viability, T/C [2]: 93.9%; viability, T/C [3]: 103%; viability, T/C [4]: 85.6%; viability, T/C [5]: 87.1%; viability, T/C [6]: 63.8%; viability, T/C [7]: 96.4%; viability, T/C [8]: 91.8%; viability, T/C [9]: 98.4%; viability, T/C [10]: 94.7%; viability, T/C [11]: 85%; viability, T/C [12]: 61.9%; viability, T/C [13]: 104%; viability, T/C [14]: 104%; viability, T/C [15]: 89.6%; viability, T/C [16]: 89%; viability, T/C [17]: 78.6%; viability, T/C [18]: 59.9%; viability, T/C [19]: 104%; viability, T/C [20]: 94.2%; viability, T/C [21]: 89.6%; viability, T/C [22]: 90%; viability, T/C [23]: 76.5%; viability, T/C [24]: 57%; viability, T/C [25]: 98%; viability, T/C [26]: 87.1%; viability, T/C [27]: 104%; viability, T/C [28]: 92.5%; viability, T/C [29]: 92.4%; viability, T/C [30]: 63.3%; viability, T/C [31]: 98.5%; viability, T/C [32]: 93.3%; viability, T/C [33]: 94.9%; viability, T/C [34]: 91.3%; viability, T/C [35]: 75.9%; viability, T/C [36]: 54.5%

Which results are given for Cc1cccc(N(C)C(=O)C2C(O)CCN2c2nc(C)cc(C(F)(F)F)c2C#N)c1 (stereo unspecified) + CN(C)c1ccc(Nc2c3ccc(NC(=O)CCN4CCCC4)cc3nc3cc(NC(=O)CCN4CCCC4)ccc23)cc1?
IC50 (second compound 0.0316 µM): > 10 µM; IC50 (second compound 0.1 µM): > 10 µM; IC50 (second compound 0.316 µM): > 10 µM; IC50 (second compound 1 µM): > 10 µM; IC50 (second compound 3.16 µM): > 10 µM; IC50 (second compound 10 µM): > 10 µM; viability, T/C [1]: 102%; viability, T/C [2]: 87.8%; viability, T/C [3]: 97.3%; viability, T/C [4]: 89.8%; viability, T/C [5]: 94.5%; viability, T/C [6]: 99.5%; viability, T/C [7]: 109%; viability, T/C [8]: 100%; viability, T/C [9]: 94.6%; viability, T/C [10]: 92.1%; viability, T/C [11]: 95.5%; viability, T/C [12]: 109%; viability, T/C [13]: 84.5%; viability, T/C [14]: 98.7%; viability, T/C [15]: 101%; viability, T/C [16]: 96.7%; viability, T/C [17]: 95.2%; viability, T/C [18]: 94.3%; viability, T/C [19]: 96.4%; viability, T/C [20]: 102%; viability, T/C [21]: 97.5%; viability, T/C [22]: 99.3%; viability, T/C [23]: 96.6%; viability, T/C [24]: 93.9%; viability, T/C [25]: 112%; viability, T/C [26]: 93.5%; viability, T/C [27]: 101%; viability, T/C [28]: 89.7%; viability, T/C [29]: 107%; viability, T/C [30]: 92.1%; viability, T/C [31]: 93.6%; viability, T/C [32]: 87.1%; viability, T/C [33]: 100%; viability, T/C [34]: 102%; viability, T/C [35]: 94%; viability, T/C [36]: 91.8%

Which IC50 (second compound 0.0316 µM) does the source give for Nc1ccn(C2OC(CO)C(O)C2(F)F)c(=O)n1 (stereo unspecified) + CN(C)c1ccc(Nc2c3ccc(NC(=O)CCN4CCCC4)cc3nc3cc(NC(=O)CCN4CCCC4)ccc23)cc1 here?
Its IC50 is 0.261 µM.

And the IC50 (second compound 0.1 µM)?
Its IC50 is 0.263 µM.

What about the IC50 (second compound 0.316 µM) of the same compound?
Its IC50 is 0.232 µM.

And the IC50 (second compound 1 µM)?
Its IC50 is 0.237 µM.

And the IC50 (second compound 3.16 µM)?
Its IC50 is 0.209 µM.

What about the IC50 (second compound 10 µM) of the same compound?
Its IC50 is 0.17 µM.

What about the viability, T/C [1] of the same compound?
The viability, T/C was 78.2%.

What about the viability, T/C [2] of the same compound?
Its viability, T/C is 65.2%.

What about the viability, T/C [3] of the same compound?
Its viability, T/C is 46.7%.

What about the viability, T/C [4] of the same compound?
Its viability, T/C is 32.3%.

What about the viability, T/C [5] of the same compound?
The viability, T/C was 25.2%.

And the viability, T/C [6]?
Its viability, T/C is 20.5%.

What about the viability, T/C [7] of the same compound?
Its viability, T/C is 85.3%.

And the viability, T/C [8]?
Its viability, T/C is 70.4%.

What about the viability, T/C [9] of the same compound?
Its viability, T/C is 42.6%.

And the viability, T/C [10]?
Its viability, T/C is 36.3%.

What about the viability, T/C [11] of the same compound?
The viability, T/C was 26.2%.

What about the viability, T/C [12] of the same compound?
The viability, T/C was 23%.

And the viability, T/C [13]?
The viability, T/C was 84.8%.

What about the viability, T/C [14] of the same compound?
Its viability, T/C is 68.6%.

What about the viability, T/C [15] of the same compound?
The viability, T/C was 42.5%.

And the viability, T/C [16]?
Its viability, T/C is 29.2%.

And the viability, T/C [17]?
Its viability, T/C is 26.8%.

What about the viability, T/C [18] of the same compound?
Its viability, T/C is 20.8%.

What about the viability, T/C [19] of the same compound?
The viability, T/C was 87%.

And the viability, T/C [20]?
Its viability, T/C is 65.7%.

What about the viability, T/C [21] of the same compound?
Its viability, T/C is 45.8%.

And the viability, T/C [22]?
Its viability, T/C is 28.2%.

What about the viability, T/C [23] of the same compound?
The viability, T/C was 23.1%.

And the viability, T/C [24]?
Its viability, T/C is 19.5%.

And the viability, T/C [25]?
The viability, T/C was 86.5%.

What about the viability, T/C [26] of the same compound?
The viability, T/C was 67.9%.

And the viability, T/C [27]?
Its viability, T/C is 38.7%.

What about the viability, T/C [28] of the same compound?
The viability, T/C was 28.9%.

And the viability, T/C [29]?
Its viability, T/C is 24.4%.

What about the viability, T/C [30] of the same compound?
The viability, T/C was 19.7%.

What about the viability, T/C [31] of the same compound?
Its viability, T/C is 76.9%.

What about the viability, T/C [32] of the same compound?
The viability, T/C was 59.9%.

What about the viability, T/C [33] of the same compound?
The viability, T/C was 39.3%.

And the viability, T/C [34]?
Its viability, T/C is 18.5%.

And the viability, T/C [35]?
Its viability, T/C is 23.2%.

What about the viability, T/C [36] of the same compound?
Its viability, T/C is 18.7%.

— PubChem BioAssay AID2060510 (Molecular Pharmacology Branch, DTP, NCI, 2025)
